Measured values published in ChEMBL document CHEMBL1240346, “AC220 is a uniquely potent and selective inhibitor of FLT3 for the treatment of acute myeloid leukemia (AML)” (Blood, 2009).

Key:
MV4-11 = experiment: cells; details: Homo sapiens, MV4-11, 72 h
Description: Cytotoxicity against human MV4-11 cells after 72 hrs by cell titer-blue assay

Ephrin type-A receptor 7 = Ephrin type-A receptor 7 (Homo sapiens, UniProt Q15375)
Description: Binding affinity to EPHA7

in vitro [1] = details: human, A375 cells
Description: Toxicity against human A375 cells after 72 hrs by cell titer-blue assay

in vivo [2] = details: nu/nu, mouse, po, 10 mg/kg
in vivo [3] = details: nu/nu, mouse, plasma, po, 10 mg/kg
in vivo [4] = details: nu/nu, mouse, po, 10 mg/kg; remark: listed apart in the source
in vitro [5] = details: mouse, plasma
Description: Plasma protein binding in mouse

[6] = biological target: T1, Poly [ADP-ribose] polymerase tankyrase-2 (Homo sapiens, UniProt Q9H2K2)
T1 sequence (Q9H2K2 whole entry): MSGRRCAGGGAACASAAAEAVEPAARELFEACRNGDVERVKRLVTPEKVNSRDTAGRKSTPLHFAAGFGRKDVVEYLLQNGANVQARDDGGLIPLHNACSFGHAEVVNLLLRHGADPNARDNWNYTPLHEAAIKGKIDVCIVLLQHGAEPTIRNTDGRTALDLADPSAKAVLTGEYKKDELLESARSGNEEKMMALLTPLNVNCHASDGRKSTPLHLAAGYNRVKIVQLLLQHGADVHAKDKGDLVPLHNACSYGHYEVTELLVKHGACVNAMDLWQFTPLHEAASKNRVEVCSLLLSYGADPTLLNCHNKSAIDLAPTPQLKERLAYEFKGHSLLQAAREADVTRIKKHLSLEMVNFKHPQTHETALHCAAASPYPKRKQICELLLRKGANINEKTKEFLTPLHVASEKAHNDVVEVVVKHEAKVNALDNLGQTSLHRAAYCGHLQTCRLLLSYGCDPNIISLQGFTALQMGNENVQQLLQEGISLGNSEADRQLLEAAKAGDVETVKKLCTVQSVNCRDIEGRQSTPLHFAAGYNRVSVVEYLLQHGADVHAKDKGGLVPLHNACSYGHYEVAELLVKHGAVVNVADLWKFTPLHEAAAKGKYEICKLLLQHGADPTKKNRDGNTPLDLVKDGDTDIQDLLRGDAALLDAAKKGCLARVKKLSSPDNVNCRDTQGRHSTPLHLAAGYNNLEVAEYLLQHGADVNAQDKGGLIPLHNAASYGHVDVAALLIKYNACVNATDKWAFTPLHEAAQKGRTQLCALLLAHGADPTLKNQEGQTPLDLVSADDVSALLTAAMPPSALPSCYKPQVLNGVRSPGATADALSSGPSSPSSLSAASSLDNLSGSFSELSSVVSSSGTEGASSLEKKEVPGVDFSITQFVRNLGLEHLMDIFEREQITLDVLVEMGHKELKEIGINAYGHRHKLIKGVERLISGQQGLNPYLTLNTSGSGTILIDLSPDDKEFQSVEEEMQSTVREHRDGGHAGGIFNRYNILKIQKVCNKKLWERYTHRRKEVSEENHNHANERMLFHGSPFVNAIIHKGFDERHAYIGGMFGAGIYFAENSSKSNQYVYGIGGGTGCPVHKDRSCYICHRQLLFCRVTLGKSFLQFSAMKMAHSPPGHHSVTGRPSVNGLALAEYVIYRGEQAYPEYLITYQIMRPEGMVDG

Chain of Ephrin type-A receptor 7 (Q15375 whole entry): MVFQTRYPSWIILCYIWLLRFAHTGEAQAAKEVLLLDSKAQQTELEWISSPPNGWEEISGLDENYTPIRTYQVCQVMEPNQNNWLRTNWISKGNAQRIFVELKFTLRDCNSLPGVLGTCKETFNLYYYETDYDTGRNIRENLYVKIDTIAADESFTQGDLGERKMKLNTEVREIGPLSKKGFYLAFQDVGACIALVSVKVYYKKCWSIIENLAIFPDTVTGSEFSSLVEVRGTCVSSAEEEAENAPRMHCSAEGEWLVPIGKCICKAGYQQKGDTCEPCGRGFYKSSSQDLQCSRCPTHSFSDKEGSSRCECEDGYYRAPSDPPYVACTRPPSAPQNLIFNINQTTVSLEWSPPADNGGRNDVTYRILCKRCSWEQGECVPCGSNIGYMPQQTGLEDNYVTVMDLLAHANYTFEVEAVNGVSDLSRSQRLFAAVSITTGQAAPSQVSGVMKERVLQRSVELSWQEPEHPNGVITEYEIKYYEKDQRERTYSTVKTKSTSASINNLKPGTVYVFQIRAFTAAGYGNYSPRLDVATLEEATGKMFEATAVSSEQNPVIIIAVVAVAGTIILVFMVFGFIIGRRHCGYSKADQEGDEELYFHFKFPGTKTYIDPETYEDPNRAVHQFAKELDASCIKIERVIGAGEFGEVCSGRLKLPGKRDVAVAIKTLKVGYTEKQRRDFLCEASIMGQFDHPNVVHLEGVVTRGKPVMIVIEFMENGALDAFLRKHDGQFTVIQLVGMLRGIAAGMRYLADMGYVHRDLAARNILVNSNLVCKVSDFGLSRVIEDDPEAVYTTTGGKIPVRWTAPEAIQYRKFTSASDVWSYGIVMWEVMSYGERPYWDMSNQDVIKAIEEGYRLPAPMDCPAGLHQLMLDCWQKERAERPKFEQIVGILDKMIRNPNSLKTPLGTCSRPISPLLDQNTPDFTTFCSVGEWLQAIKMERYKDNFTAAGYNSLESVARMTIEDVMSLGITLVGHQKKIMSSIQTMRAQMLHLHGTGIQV

SMILES	IC50 (MV4-11) [nM]	Kd (Ephrin type-A receptor 7) [nM]	IC50 at 72 h (in vitro [1]) [nM]	Tmax (in vivo [2]) [min]	AUC(0-t) at 24 h (in vivo [3]) [µM·h]	Cmax (in vivo [4]) [nM]	fraction unbound (in vitro [5])	Kd [6] [nM]
CO[C@@H]1[C@H](N(C)C(=O)c2ccccc2)C[C@H]2O[C@]1(C)n1c3ccccc3c3c4c(c5c6ccccc6n2c5c31)C(=O)N[C@H]4O [CGP-52421]	64	> 10000	530	40.2	8.4	2300		
COc1cc2c(N3CCN(C(=O)Nc4ccc(OC(C)C)cc4)CC3)ncnc2cc1OCCCN1CCCCC1 [TANDUTINIB]	60		> 10000	60	0.28	81	0.02	> 10000
